# Experimental data published in patent US20260217683A1, “PYRIDAZINONE HETEROCYCLIC COMPOUND MYOSIN II INHIBITOR AND USE THEREOF” (Xizang Haisco Pharmaceutical Co., Ltd., priority 2023, published 2026).
# Where two headings read alike, the source gives them in different places.
# Experiments:
# [1] = system: rabbit skeletal muscle myosin; test: Inhibition of hydrolysis of ATP by rabbit skeletal muscle myosin; type: biochemical
# Summary of the method: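 Actin-activated ATPase: F-actin plus rabbit skeletal myosin II with compound in Tris-HCl pH 7.5/KCl/EGTA/MgCl2, started with ATP (3 mM working stock) and run 60 min at 37 °C. Released Pi measured by CytoPhos absorbance at 650 nm against a phosphate standard curve; IC50 fitted from inhibition relative to uninhibited myosin.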
# [2] = target: T1, hERG potassium ion channel (Homo sapiens, UniProt Q12809); test: Effect on hERG potassium ion channel (manual patch-clamp, CHO cells); type: cell-based; conditions: CHO cells stably expressing hERG, whole cell patch-clamp; read-out: IC50 of the inhibitory effect on hERG potassium channel current
# T1 construct: expressed in transfected cells
# T1 sequence (Q12809 whole entry): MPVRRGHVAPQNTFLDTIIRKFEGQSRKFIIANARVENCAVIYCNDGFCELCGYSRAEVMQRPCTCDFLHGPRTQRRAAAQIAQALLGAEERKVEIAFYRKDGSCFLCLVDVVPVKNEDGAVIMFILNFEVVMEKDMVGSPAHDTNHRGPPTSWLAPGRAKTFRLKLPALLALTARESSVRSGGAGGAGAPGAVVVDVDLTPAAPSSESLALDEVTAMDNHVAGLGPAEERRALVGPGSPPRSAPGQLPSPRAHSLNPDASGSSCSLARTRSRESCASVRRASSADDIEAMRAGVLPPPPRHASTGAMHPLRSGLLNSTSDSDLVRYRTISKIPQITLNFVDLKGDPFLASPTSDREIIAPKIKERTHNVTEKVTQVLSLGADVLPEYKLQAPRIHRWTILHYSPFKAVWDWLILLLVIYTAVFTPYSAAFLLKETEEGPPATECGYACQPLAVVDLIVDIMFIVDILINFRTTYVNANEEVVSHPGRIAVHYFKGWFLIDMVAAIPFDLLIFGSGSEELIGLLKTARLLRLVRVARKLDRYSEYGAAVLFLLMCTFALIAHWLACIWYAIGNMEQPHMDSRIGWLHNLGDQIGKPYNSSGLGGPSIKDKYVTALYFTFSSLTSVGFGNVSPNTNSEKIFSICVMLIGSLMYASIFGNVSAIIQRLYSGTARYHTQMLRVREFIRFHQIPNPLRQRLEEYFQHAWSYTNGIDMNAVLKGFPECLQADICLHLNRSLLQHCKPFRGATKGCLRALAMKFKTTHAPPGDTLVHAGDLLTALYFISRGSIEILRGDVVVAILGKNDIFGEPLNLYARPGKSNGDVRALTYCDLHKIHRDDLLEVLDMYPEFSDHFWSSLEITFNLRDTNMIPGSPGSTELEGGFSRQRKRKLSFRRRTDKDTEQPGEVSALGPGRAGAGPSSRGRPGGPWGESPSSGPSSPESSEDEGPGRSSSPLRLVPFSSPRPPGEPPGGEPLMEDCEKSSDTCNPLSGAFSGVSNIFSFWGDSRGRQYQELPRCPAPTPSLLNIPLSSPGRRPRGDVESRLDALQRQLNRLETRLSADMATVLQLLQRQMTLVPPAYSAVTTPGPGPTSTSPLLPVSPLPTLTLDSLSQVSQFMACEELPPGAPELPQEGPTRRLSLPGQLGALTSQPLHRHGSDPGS
# From the text: 1. Experimental platform: electrophysiological manual patch-clamp system
# 2. Cell line: Chinese hamster ovary (CH—O) cell lines stably expressing hERG potassium ion channel
# 3. Experimental method: in CHO (Chinese Hamster Ovary) cells stably expressing hERG potassium channel, whole cell patch-clamp technique was used to record hERG potassium channel current at room temperature. The glass microelectrode was made of a glass electrode blank (BF150-86-10, Sutter) by a puller. The tip resistance after filling the liquid in the electrode was about 2-5 MQ. The glass microelectrode can be connected to the patch-clamp amplifier by inserting the glass microelectrode into an amplifier probe. The clamping voltage and data recording were controlled and recorded by the pClamp 10 software through a computer. The sampling frequency was 10 kHz, and the filtering frequency was 2 kHz. After the whole cell records were obtained, the cells were clamped at −80 mV, and the step voltage that induced the hERG potassium current (IhERG) was depolarized from −80 mV to +20 mV for 2 s, then repolarized to −50 mV, and returned to −80 mV after 1 s. This voltage stimulation was given every 10 s, and the administration process was started after the hERG potassium current was confirmed to be stable (at least 1 minute). The compound was administered for at least 1 minute at each test concentration, and at least 2 cells (n≥2) were tested at each concentration.
# 4. Data processing: Data analysis processing was carried out by using pClamp 10, GraphPad Prism 5 and Excel software. The inhibition degree of hERG potassium current (peak value of hERG tail current induced at −50 mV) at different compound concentrations was calculated by the following formula:
# [formula] • where Inhibition % represents the percentage of inhibition of hERG potassium current by the compound, and I and Io represent the amplitude of hERG potassium current after and before the administration, respectively.
# Compound IC50 was calculated using GraphPad Prism 5 software by fitting according to the following equation: […]
# Among the equation, X represents the Log value of the tested concentration of the test sample, Y represents the inhibition percentage at the corresponding concentration, and Bottom and Top represent the minimum and maximum inhibition percentage, respectively.
# [3] = Pharmacokinetic experiment in mice; type: in vivo; conditions: male, C57, po; mouse plasma, i.g. (10 mg/kg)
# Description: 1. Experimental animals: Male C57 mice, 22-25 g, 6 mice/compound. Purchased from Chengdu Ddossy Experimental Animals Co., Ltd.
# 2. Experimental design: On the day of the experiment, 12 C57 mice were randomly grouped according to their body weight. The animals were fasted with water available for 12 to 14 h one day before the administration and were fed 4 h after the administration.
# Before and after the administration, 0.06 mL of blood was taken from the orbit of the animals under isoflurane anesthesia and placed in an EDTAK2 centrifuge tube. The blood was centrifuged at 5000 rpm and 4° C. for 10 min to collect the plasma. The blood collection time points for the intravenous group and intragastric administration group were: 0 m, 5 m, 15 min, 30 min, 1 h, 2 h, 4 h, 7 h and 24 h. Before analysis and detection, all samples were stored at −80° C., and a quantitative analysis of samples was performed using LC-MS/MS.
# CYP2D6 = target: T2, CYP2D6 (Homo sapiens, UniProt P10635); test: CYP450 enzyme inhibition, human liver microsomes, CYP2D6; type: in vitro ADME
# T2 construct: incubated with human liver microsomes and test compounds of different concentrations; from tissue; host or cells: human liver microsomes
# T2 sequence (P10635 whole entry): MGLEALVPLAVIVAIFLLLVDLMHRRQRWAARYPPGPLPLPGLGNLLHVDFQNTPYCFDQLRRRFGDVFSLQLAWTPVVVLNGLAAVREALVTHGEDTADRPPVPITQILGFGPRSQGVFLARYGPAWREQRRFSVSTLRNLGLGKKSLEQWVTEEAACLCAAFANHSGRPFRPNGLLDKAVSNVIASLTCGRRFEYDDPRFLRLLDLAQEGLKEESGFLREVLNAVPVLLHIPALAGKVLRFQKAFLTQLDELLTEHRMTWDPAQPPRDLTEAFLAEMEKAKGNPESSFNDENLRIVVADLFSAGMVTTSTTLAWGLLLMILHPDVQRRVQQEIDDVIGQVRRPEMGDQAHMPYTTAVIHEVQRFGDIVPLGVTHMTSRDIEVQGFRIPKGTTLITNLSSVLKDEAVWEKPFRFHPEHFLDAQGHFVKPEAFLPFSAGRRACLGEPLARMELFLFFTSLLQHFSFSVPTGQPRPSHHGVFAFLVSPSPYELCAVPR
# Description: The purpose of this study was to evaluate the effect of the test compound on the activity of five isoenzymes (CYP1A2, CYP2C9, CYP2C19, CYP2D6 and CYP3A4) of human liver microsomal cytochrome P450 (CYP) by using an in vitro testing system. The specific probe substrates of CYP450 isoenzymes were incubated with human liver microsomes and test compounds of different concentrations, and reduced nicotinamide adenine dinucleotide phosphate (NADPH) was added to initiate the reaction. After the completion of the reaction, the sample was treated and liquid chromatography-tandem mass spectrometry (LC-MS/MS) was used to quantitatively detect metabolites produced by specific substrates, changes in CYP enzyme activity were determined, and IC50 value was calculated to evaluate the inhibitory potential of the test compound on each CYP enzyme subtype.
# [4] = inhibition of hydrolysis of ATP, class symbols, read-out: Rabbit skeletal muscle myosin (IC50)
# [5] = read-out: IC50 for inhibition of hydrolysis of ATP by rabbit skeletal muscle myosin
"IC50 [1, 4]","IC50 [1, 5]",AUC(0-t) [3],Cmax [3],half-life [3],IC50 (CYP2D6),Compound,IC50 [2]
< 2500 nM,330 nM,,,,,O=c1ccc(-c2cnc(OCC(F)(F)F)nc2)nn1Cc1ccc2c(c1)CCC2 [Compound 57],> 40000 nM
< 2500 nM,800 nM,2320 ng·h/mL,324 ng/mL,102 h,> 30 µM,O=C1CCc2ccc(Cn3nc(-c4cnc(OCC(F)(F)F)nc4)ccc3=O)cc21 [Compound 88],
< 2500 nM,400 nM,,,91.1 h,> 30 µM,O=C1CCc2ccc(Cn3nc(-c4cnc(OCC(F)F)nc4)ccc3=O)cc21 [Compound 131],
< 2500 nM,800 nM,,,,> 30 µM,O=C1CCc2ccc(Cn3nc(-c4cnc(OC5CC(F)(F)C5)nc4)ccc3=O)cc21 [Compound 141],
< 2500 nM,,,,52.3 h,> 30 µM,O=C1CCc2ccc(Cn3nc(-c4cnc(O[C@@H]5CCOC5)nc4)ccc3=O)cc21 [Compound 149],
< 2500 nM,,,,40.7 h,,O=C1CCc2ccc(Cn3nc(-c4cnc(O[C@H]5CCOC5)nc4)ccc3=O)cc21 [Compound 150],> 40000 nM
< 2500 nM,700 nM,,,,> 30 µM,O=C1CCc2ccc(Cn3nc(-c4cnc(Oc5cncc(Cl)c5)nc4)ccc3=O)cc21 [Compound 151],
< 2500 nM,,,,,> 30 µM,N#CC1(COc2ncc(-c3ccc(=O)n(Cc4ccc5c(c4)C(=O)CC5)n3)cn2)CC1 [Compound 158],> 40000 nM
< 2500 nM,,,,,> 30 µM,O=C1CCc2ccc(Cn3nc(-c4cnc(OC5COCC5(F)F)nc4)ccc3=O)cc21 (stereo not shown) [Compound 164],> 40000 nM
2500 to 20000 nM,,,,,> 30 µM,O=C1CCc2c(F)cc(Cn3nc(-c4cnc(O[C@H]5CCOC5)nc4)ccc3=O)cc21 [Compound 165],> 40000 nM
< 2500 nM,270 nM,,,,> 30 µM,O=C1CCc2c(F)cc(Cn3nc(-c4cnc(OCC(F)F)nc4)ccc3=O)cc21 [Compound 167],
